Source: the NIST ThermoML archive (doi:10.1021/je200836x)

Experiment: mn = molality of the nth substance listed, in mol/kg
Details: 101 kPa, Liquid; for molar conductivity: Alternating current cell with electrodes; for mass density: Vibrating tube method

Cc1cccc(C(=O)O)c1[O-].[Na+] [sodium 2-hydroxy-3-methylbenzoate] + O
Details | mass density, 298.15 K [kg/m3] | molar conductivity, 278.15 K [S·m2/mol] | molar conductivity, 283.15 K [S·m2/mol] | molar conductivity, 288.15 K [S·m2/mol] | molar conductivity, 293.15 K [S·m2/mol] | molar conductivity, 298.15 K [S·m2/mol] | molar conductivity, 303.15 K [S·m2/mol] | molar conductivity, 308.15 K [S·m2/mol] | molar conductivity, 313.15 K [S·m2/mol]
m1 = 0.0001789 | – | 0.004702 | 0.005436 | 0.006213 | 0.007035 | 0.007891 | 0.008781 | 0.009702 | 0.01065
m1 = 0.0004159 | – | 0.004659 | 0.005386 | 0.006159 | 0.006975 | 0.007824 | 0.008709 | 0.009625 | 0.01056
m1 = 0.0007115 | – | 0.004632 | 0.005354 | 0.006119 | 0.006928 | 0.007773 | 0.008653 | 0.009562 | 0.01049
m1 = 0.001003 | – | 0.004611 | 0.00533 | 0.006091 | 0.006896 | 0.007731 | 0.008606 | 0.009511 | 0.01044
m1 = 0.001322 | – | 0.004591 | 0.005306 | 0.00606 | 0.006862 | 0.007698 | 0.00857 | 0.00947 | 0.0104
m1 = 0.001698 | – | 0.004566 | 0.005277 | 0.006032 | 0.00683 | 0.007665 | 0.008535 | 0.009432 | 0.01036
m1 = 0.002088 | – | 0.004547 | 0.005256 | 0.006008 | 0.006803 | 0.007632 | 0.008498 | 0.009395 | 0.01031
m1 = 0.002646 | – | 0.004526 | 0.005232 | 0.005981 | 0.006772 | 0.007599 | 0.008457 | 0.009327 | 0.01024
m1 = 0.003288 | – | 0.004504 | 0.005206 | 0.005951 | 0.006738 | 0.007542 | 0.008399 | 0.009286 | 0.0102
m1 = 0.004113 | – | 0.004483 | 0.005178 | 0.005905 | 0.006688 | 0.007504 | 0.008356 | 0.00924 | 0.01015
m1 = 0.005007 | 997.408 | 0.004457 | 0.00514 | 0.005873 | 0.00665 | 0.007462 | 0.008307 | 0.009184 | 0.01009
m1 = 0.09201 | 1003.59 | – | – | – | – | – | – | – | –
